Laboratory results as given in BindingDB's records for doi:10.1073/pnas.151105198 (Synaptic Pharmaceutical, 2001).
pKi: −log10 of the molar value.

Target: T1, Trace amine-associated receptor 1 (Homo sapiens, UniProt Q96RJ0)
T1 sequence (Q96RJ0 whole entry): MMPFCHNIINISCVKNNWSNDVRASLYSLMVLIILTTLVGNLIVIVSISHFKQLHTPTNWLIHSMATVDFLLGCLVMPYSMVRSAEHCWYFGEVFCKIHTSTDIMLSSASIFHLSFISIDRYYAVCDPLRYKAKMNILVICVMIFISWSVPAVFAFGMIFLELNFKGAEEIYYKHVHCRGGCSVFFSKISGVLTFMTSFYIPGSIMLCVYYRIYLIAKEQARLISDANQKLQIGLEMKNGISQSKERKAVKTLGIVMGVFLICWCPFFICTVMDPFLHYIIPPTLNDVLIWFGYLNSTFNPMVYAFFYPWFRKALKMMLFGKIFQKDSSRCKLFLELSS

| SMILES | pKi |
| --- | --- |
| NCC(O)c1ccc(O)c(O)c1 (stereo not drawn) [Noradrenaline,(+)] | < 5.00 |
| CN1CCN(C2Cc3ccccc3Sc3ccc(Cl)cc32)CC1 (stereo unspecified) [1-(8-chloro-10,11-dihydrodibenzo[b,f]thiepin-10-yl)-4-methylpiperazine] | 6.31 |
| NCCc1ccc(O)cc1 | 7.47 |
| NCCc1c[nH]cn1 [[3H]histamine] | 5.51 |
| OCCc1ccccc1 [NSC_6054] | 8.10 |
| NCCc1c[nH]c2ccccc12 [1H-indole-3-ethanamine] | 5.96 |
